Experimental data from patent US20070154965A1, “Chlorotoxin-labeled nanoparticle compositions and methods for targeting primary brain tumors” (priority 2005, published 2007).

System: 9L cells
Assay: Transwell migration (matrigel invasion) assay
Type: cell-based, rat
Conditions: 4 μg/ml free chlorotoxin, 24 hrs
Description: Transwell migration assay. The assay was performed by a method reported previously to assess the bioactivity of chlorotoxin. See Deshane et al., J. Biol. Chem. 2003, 278:4135-4144, expressly incorporated herein in its entirety. Prior to the experiment, matrigel invasion chamber inserts (BD Biosciences, Bedford, Mass.) of 8 μm pore size were rehydrated. The lower surfaces of the chamber inserts were immersed in 5 μg/ml solution of vitronectin for 8 hours. 9L cells were then plated at a density of 2.5×10^5 cells per chamber. Cells were treated with solutions of 4 μg/ml of chlorotoxin, and 10 μg Fe/ml of NPCs, respectively. The chambers were then incubated in a 37° C. humidified incubator maintained at 5% CO2 for 24 hrs. The cells on the upper inserts were scrubbed off, and the invaded cells were fixed and stained with Diff-Quik stain kit (IMEB INC., Chicago, Ill.). The filters were then detached from the inserts and mounted on glass slides using immersion oil and imaged on a Nikon E800 upright microscope. Relative inhibition of cell invasion was determined through reduction of migrating cells in presence of chlorotoxin and NPCs. Triplicates of each sample were prepared and cell counts were obtained from five random spots on each filter. The data was then averaged and presented as a relative number of invasive cells per treatment.

chlorotoxin was tested, and the “inhibition of cell invasion” value was “approximately 88%”.
